# Measured values: patent US9394285B2 (Pfizer Inc., priority 2013, dated 2016)
# Target: human AMPK (full-length γ1, β1 and α1 subunits) (Homo sapiens (Human), UniProt Q13131+Q9Y478)
# Test: AMPK in vitro biochemical assay (33P-based, SAMS peptide, PP2A dephosphorylation)
# Settings: for EC50: activation of phosphorylated AMPK, 33P-ATP, SAMS peptide, PP2A treatment, 4-parameter fit; for Emax: counts as % of positive control wells (enzyme, allosteric activator or AMP, PP2A and substrate), read-out: Maximum
# Source text: We designed a tricistronic AMPK expression construct that included open reading frames encoding the full-length γ1, β1 and α1 subunits of human AMPK with a ribosome-binding site (RBS) ahead of each coding region and subcloned this into pET-14b expression vector (Novagen, Madison, Wis.) using standard molecular biology techniques. AMPK tricistronic construct was transformed into E. coli BL21-CodonPlus™ (DE3)-RIPL strain (Stratagene) and transformants were selected on LB (Luria-Bertani) agar plates containing ampicillin (100 μg/ml). […] Optical density sample measurements were made on an UltroSpec 2000 spectrophotometer (Pharmacia Biotech) at 600 nm. When the cell density reached ˜0.9 OD, the temperature was reduced to 18° C. and the culture was induced at 18° C. with 0.1 mM Isopropylthiogalactoside (IPTG). […] The cell pellets were aliquoted into four portions, flash frozen in liquid nitrogen and were stored at −80° C. until purification. For purification, frozen cell paste was thawed and resuspended in 50 ml lysis buffer (50 mM Tris, pH 8.0, 150 mM NaCl, 10% glycerol, 2 mM Tris-2-carboxyethyl phosphine (TCEP), 20 mM imidazole and 0.001% Triton X-100). After sonication, insoluble material was removed by centrifugation at 15,000 rpm in a Sorvall® RC5 plus centrifuge for 30 min at 4° C. and the supernatant was loaded onto a 5 ml HisTrap™ HP column (GE Healthcare, Piscataway, N.J.) and washed with five column volumes of lysis buffer. Bound proteins were eluted using an elution buffer containing 300 mM imidazole. Fractions containing AMPK subunits were pooled based on SDS-10% PAGE analysis and dialyzed overnight in dialysis buffer (50 mM Tris, pH 8.0, 150 mM NaCl, 10% glycerol, 2 mM TCEP, and 0.001% Triton X-100). […] The phosphorylated AMPK complex was re-purified on HisTrap™ HP column as before, dialyzed over night in dialysis buffer. The phosphorylated AMPK complex was further purified by gel filtration chromatography with a Superdex 200 HiLoad 16/60 column (GE Healthcare) in SEC buffer (50 mM Tris, pH 8.0, 150 mM NaCl, 10% glycerol, 2 mM TCEP, and 0.001% Triton X-100).
# The harvest time (72 hours post infection) was indicated by percent cell viability (to 85-90%) and increased cell diameter (3-4 μm). […] For purification, the cell paste was resuspended in 500 mL lysis buffer (50 mM Tris pH 8.0, 150 mM NaCl, 25 mM imidazole, 10% glycerol, 2 mM MgCl2, 2 mM TCEP+protease inhibitor cocktail. After lysis, cellular debris was removed by centrifugation at 36K×g for 1 hour. The resulting supernatant was filtered at 0.2 micron before applying to a 1 mL nickel charged IMAC column (HisTrap, GE). The bound resin was washed to baseline with 50 CV of 50 mM Tris pH 8.0, 150 mM NaCl, 25 mM imidazole, 10% glycerol, 2 mM MgCl2, 2 mM TCEP before eluting over a 20 CV gradient to 100% with wash buffer containing 500 mM imidazole. Pooled fractions containing PP2A were combined and diluted 10× with 50 mM Tris pH 8.0, 10% glycerol, 1 mM TCEP and applied to a 1 mL AIEX resin (HiTrap QFF, GE). The bound resin was washed with dilution buffer and PP2A was eluted over a 20 CV gradient to 100% 50 mM Tris pH 8.0, 500 mM NaCl, 10% glycerol, 1 mM TCEP and was further diluted 1:1 with 50 mM Tris pH 8.0, 150 mM NaCl, 10% glycerol, and 1 mM TCEP buffer.
# The biochemical EC50 (half-maximal concentration required for full activation) of compounds for the activation of AMPK was evaluated by ^33P-based assay using SAMS peptide (commercially available) derived from ACC-1. Twenty μl of phosphorylated AMPK diluted in assay buffer, (50 mM HEPES, 1 mM EGTA, 10 mM MgCl2, 0.25 mM DTT, 0.01% Tween-20, 0.01% BSA (pH 7.5)) was added to 384 well plates containing 1 μL of test compound. Following a fifteen minute room temperature incubation, 10 μL of protein phosphatase PP2A was added to the plate to dephosphorylate pThr172 of AMPK. […] The reaction was terminated after 60 minutes incubation at room temperature by the addition of 15 μL of 2% H3PO4.
# human AMPK (full-length γ1, β1 and α1 subunits), sequence (Q13131 whole entry): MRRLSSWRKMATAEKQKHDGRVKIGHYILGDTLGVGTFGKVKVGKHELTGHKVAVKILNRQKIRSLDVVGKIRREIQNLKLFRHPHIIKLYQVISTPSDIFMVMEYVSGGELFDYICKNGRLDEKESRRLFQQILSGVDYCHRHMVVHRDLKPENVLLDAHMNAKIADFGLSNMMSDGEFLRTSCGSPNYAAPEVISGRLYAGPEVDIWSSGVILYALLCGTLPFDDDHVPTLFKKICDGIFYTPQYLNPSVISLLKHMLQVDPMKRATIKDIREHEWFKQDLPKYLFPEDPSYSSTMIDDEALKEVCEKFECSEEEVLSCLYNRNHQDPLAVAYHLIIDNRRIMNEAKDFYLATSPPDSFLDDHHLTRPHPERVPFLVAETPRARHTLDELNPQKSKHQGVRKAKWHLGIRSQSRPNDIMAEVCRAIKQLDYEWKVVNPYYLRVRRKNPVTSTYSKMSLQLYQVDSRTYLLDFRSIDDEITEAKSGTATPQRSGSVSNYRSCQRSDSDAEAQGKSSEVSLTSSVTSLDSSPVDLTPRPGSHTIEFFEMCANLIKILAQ
# human AMPK (full-length γ1, β1 and α1 subunits), sequence (Q9Y478 whole entry): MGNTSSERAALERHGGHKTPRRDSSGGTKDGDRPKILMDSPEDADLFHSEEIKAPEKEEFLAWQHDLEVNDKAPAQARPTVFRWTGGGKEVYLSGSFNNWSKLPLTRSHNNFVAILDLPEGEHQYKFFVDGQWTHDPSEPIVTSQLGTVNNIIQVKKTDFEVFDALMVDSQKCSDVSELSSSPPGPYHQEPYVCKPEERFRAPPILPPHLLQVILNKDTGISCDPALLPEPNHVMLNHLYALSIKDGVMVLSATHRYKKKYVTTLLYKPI
# human AMPK (full-length γ1, β1 and α1 subunits), sequence (P54619 whole entry partner): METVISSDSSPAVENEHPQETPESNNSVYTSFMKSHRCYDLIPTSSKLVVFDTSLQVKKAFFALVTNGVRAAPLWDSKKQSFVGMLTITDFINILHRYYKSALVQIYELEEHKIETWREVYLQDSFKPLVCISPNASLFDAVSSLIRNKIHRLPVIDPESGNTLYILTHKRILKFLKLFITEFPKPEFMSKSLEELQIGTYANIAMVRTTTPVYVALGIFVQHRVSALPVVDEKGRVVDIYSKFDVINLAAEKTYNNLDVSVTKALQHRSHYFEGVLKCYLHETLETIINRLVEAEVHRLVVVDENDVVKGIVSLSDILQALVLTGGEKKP
EC50,Emax,Compound
74.2 nM,72%,"Cc1cc2[nH]cc(C(=O)O)c2cc1-c1ccc(C2(O)CCC2)cc1 [Example 35, 5-[4-(1-hydroxycyclobutyl)phenyl]-6-methyl-1H-indole-3-carboxylic acid]"
7.1 nM,70%,"CC(C)(CO)c1ccc(-c2cc3c(C(=O)O)c[nH]c3cc2Cl)cc1 [Example 36, 6-chloro-5-[4-(1-hydroxy-2-methylpropan-2-yl)phenyl]-1H-indole-3-carboxylic acid]"
248 nM,81%,"COc1ccc(-c2cc3c(C(=O)O)c[nH]c3cc2Cl)cc1OC [Example 37, 6-chloro-5-(3,4-dimethoxyphenyl)-1H-indole-3-carboxylic acid]"
821 nM,78%,"Cc1cc(C2(O)CCC2)ccc1-c1cc2c(C(=O)O)c[nH]c2cc1Cl [Example 40, 6-chloro-5-[4-(1-hydroxycyclobutyl)-2-methylphenyl]-1H-indole-3-carboxylic acid]"
9.6 nM,62%,"Cc1cc(-c2cc3c(C(=O)O)c[nH]c3cc2Cl)ccc1C1(O)CCC1 [Example 41, 6-chloro-5-[4-(1-hydroxycyclobutyl)-3-methylphenyl]-1H-indole-3-carboxylic acid]"
21.8 nM,65%,"O=C(O)c1c[nH]c2cc(Cl)c(-c3ccc(C4(O)CCC4)c(F)c3)cc12 [Example 42, 6-chloro-5-[3-fluoro-4-(1-hydroxycyclobutyl)phenyl]-1H-indole-3-carboxylic acid]"
1.7 nM,68%,"O=C(O)c1c[nH]c2cc(Cl)c(-c3ccc(-c4ccccc4)cc3)cc12 [Example 43, 5-(biphenyl-4-yl)-6-chloro-1H-indole-3-carboxylic acid]"
85 nM,78%,"COc1ccc(-c2cc3c(C(=O)O)c[nH]c3cc2Cl)c(F)c1 [Example 44, 6-chloro-5-(2-fluoro-4-methoxyphenyl)-1H-indole-3-carboxylic acid]"
225 nM,94%,"CS(=O)(=O)N1CCC1c1ccc(-c2cc3c(C(=O)O)c[nH]c3cc2Cl)cc1 (stereo not shown) [Example 45, 6-chloro-5-{4-[1-(methylsulfonyl)azetidin-2-yl]phenyl}-1H-indole-3-carboxylic acid]"
65.3 nM,96%,"O=C(O)c1c[nH]c2cc(Cl)c(-c3ccc(OC[C@@H]4CCCN4)cc3)cc12 [Example 47, 6-chloro-5-{4[(2S)-pyrrolidin-2-ylmethoxy]phenyl}-1H-indole-3-carboxylic acid]"
110 nM,89%,"O=C(O)c1c[nH]c2cc(Cl)c(-c3ccc(OCCN4CCNCC4)cc3)cc12 [Example 48, 6-chloro-5-{4-[2-(piperazin-1-yl)ethoxy]phenyl}-1H-indole-3-carboxylic acid]"
204 nM,79%,"O=C(O)c1c[nH]c2cc(Cl)c(-c3ccc(O[C@H]4CCCC[C@@H]4O)cc3)cc12 [Example 50, 6-chloro-5-(4-{[(1S,2S)-2-hydroxycyclohexyl]oxy}phenyl)-1H-indole-3-carboxylic acid]"

# Continued, compound first:
Compound,EC50,Emax
"CS(=O)(=O)N1CCC(c2ccc(-c3cc4c(C(=O)O)c[nH]c4cc3Cl)cc2)C1 (stereo not shown) [Example 16, 6-chloro-5-{4-[1-(methylsulfonyl)pyrrolidin-3-yl]phenyl}-1H-indole-3-carboxylic acid]",412 nM,114%
"O=C(O)c1c[nH]c2cc(Cl)c(-c3ccc(C4CCNC4)cc3)cc12 (stereo not shown) [Example 17, 6-chloro-5-[4-(pyrrolidin-3-yl)phenyl]-1H-indole-3-carboxylic acid]",126 nM,107%
"O=C(O)c1c[nH]c2cc(Cl)c(-c3ccc(OC4COC4)cc3)cc12 [Example 18, 6-chloro-5-[4-(oxetan-3-yloxy)phenyl]-1H-indole-3-carboxylic acid]",181 nM,92%
"O=C(O)c1c[nH]c2cc(Cl)c(-c3ccc(OCCN4CCOCC4)cc3)cc12 [Example 19, 6-chloro-5-{4-[2-(morpholin-4-yl)ethoxy]phenyl}-1H-indole-3-carboxylic acid]",383 nM,96%
"O=C(O)c1c[nH]c2cc(F)c(-c3ccc(C4(O)COC4)cc3)c(F)c12 [Example 20, 4,6-difluoro-5-[4-(3-hydroxyoxetan-3-yl)phenyl]-1H-indole-3-carboxylic acid]",53.6 nM,62%
CC(C)(CO)COc1ccc(-c2cc3c(C(=O)O)c[nH]c3cc2Cl)cc1 [Example 21],93.5 nM,86%
"O=C(O)c1c[nH]c2cc(F)c(-c3ccc(C4(CO)CC4)cc3)c(F)c12 [Example 22, 4,6-difluoro-5-(4-(1-(hydroxymethyl)cyclopropyl)phenyl)-1H-indole-3-carboxylic acid]",13.7 nM,122%
"O=C(O)c1c[nH]c2cc(F)c(-c3ccc(OCCO)cc3)c(F)c12 [Example 24, 4,6-difluoro-5-[4-(2-hydroxyethoxy)phenyl]-1H-indole-3-carboxylic acid]",252 nM,91%
"COc1cc(-c2cc3c(C(=O)O)c[nH]c3cc2F)ccc1C1(O)CCC1 [Example 25, 6-fluoro-5-[4-(1-hydroxycyclobutyl)-3-methoxyphenyl]-1H-indole-3-carboxylic acid]",111 nM,78%
"CC(C)(CO)c1ccc(-c2c(F)cc3[nH]cc(C(=O)O)c3c2F)cc1 [Example 26, 4,6-difluoro-5-[4-(1-hydroxy-2-methylpropan-2-yl)phenyl]-1H-indole-3-carboxylic acid]",124 nM,74%
"Cc1cc2[nH]cc(C(=O)O)c2cc1-c1ccc(C2(CO)CC2)cc1 [Example 27, 5-{4-[1-(hydroxymethyl)cyclopropyl]phenyl}-6-methyl-1H-indole-3-carboxylic acid]",36.9 nM,107%
"O=C(O)c1c[nH]c2cc(F)c(-c3ccc(OCCCO)cc3)c(F)c12 [Example 28, 4,6-difluoro-5-[4-(3-hydroxypropoxy)phenyl]-1H-indole-3-carboxylic acid]",1080 nM,98%
"COc1cccc(-c2cc3c(C(=O)O)c[nH]c3cc2Cl)c1 [Example 29, 6-chloro-5-(3-methoxyphenyl)-1H-indole-3-carboxylic acid]",383 nM,101%
"CCOc1ccc(-c2cc3c(C(=O)O)c[nH]c3cc2Cl)cc1 [Example 31, 6-Chloro-5-(4-ethoxyphenyl)-1H-indole-3-carboxylic acid]",130 nM,104%
"COc1ccc(-c2cc3c(C(=O)O)c[nH]c3cc2C#N)cc1 [Example 32, 6-Cyano-5-(4-methoxyphenyl)-1H-indole-3-carboxylic acid]",570 nM,97%
"COc1ccc(-c2cc3c(C(=O)O)c[nH]c3cc2Cl)cc1 [Example 33, 6-Chloro-5-(4-methoxy-phenyl)-1H-indole-3-carboxylic acid]",85.3 nM,83%
"COc1ccc(-c2cc3c(C(=O)O)c[nH]c3cc2F)cc1 [Example 34, 6-Fluoro-5-(4-methoxy-phenyl)-1H-indole-3-carboxylic acid]",315 nM,122%
